# Reference: PMC7875120 (Bioorganic & medicinal chemistry, 2020)
# Counter-ions that a name gives are not always drawn.
# Key:
# HeLa cells = experiment: Antiproliferative activity in parental HeLa cells; assay type: cell-based; settings: Homo sapiens, read-out: IC50 ± SD HeLa
# MDA-MB-435 cancer cells = settings: earlier report; cited from earlier work
# SK-OV-3 cells = experiment: Antiproliferative activity in parental SK-OV-3 cells; assay type: cell-based; settings: Homo sapiens, SK-OV-3, read-out: IC50 ± SD SK-OV-3
# [1] = tested on: cellular microtubules in A-10 cells; experiment: Microtubule depolymerizing effects, cell-based phenotypic screen; settings: for microtubule depolymerizing activity: at 10000 nM, A-10 cells
# U251 cancer cells = experiment: U251 cytotoxicity assay; assay type: cell-based, human; settings: versus compound 5
# NCI 60 cancer cell lines = experiment: NCI 60 cell line panel; assay type: cell-based; settings: values in Table S2, not available
# [2] = tested on: U251 human glioma cells implanted into nude mice; experiment: U251 flank xenograft study; assay type: in vivo; settings: 17.5 mg/kg twice week
# [3] = Maximal tolerated dose, dose escalation study; assay type: in vivo; settings: nude mice, escalation until >5% weight loss
compound,measurement,setting,value
"COc1ccc(/C=C\c2cc(OC)c(OC)c(OC)c2)cc1O [CA-4, Combretastatin A-4]",IC50,HeLa cells,4.7 ± 0.2 nM
COc1ccc(Nc2nc(C)nc3c2CC(C)C3)cc1 (stereo not drawn) [Compound 2],antiproliferative and microtubule depolymerizing activity,MDA-MB-435 cancer cells,almost inactive
"COc1ccc(N(C)c2nc(C)nc3c2CCC3)cc1 [Compound 3, 2,4-dimethyl-4-(4′-methoxy)phenyl cyclopenta[d]pyrimidine]",IC50,HeLa cells,12 ± 1.2 nM
same,IC50,SK-OV-3 cells,11.3 ± 0.2 nM
"COc1ccc2c(N(C)c3nc(C)nc4c3CCC4)cccc2c1 [Compound 4, N-(6’-methoxynaphthyl-1’)-N,2-dimethyl-cyclopenta[d]pyrimidin-4-amine hydrochloric acid salt]",microtubule depolymerizing activity,[1],no microtubule depolymerizing activity
same,fold less potent/active than 5 in the U251 cytotoxicity assay,U251 cancer cells,5 fold
"COc1cccc2cc(N(C)c3nc(C)nc4c3CCC4)ccc12 [Compound 5, N-(5’-methoxynaphthyl-2’)-N,2-dimethyl-cyclopenta[d]pyrimidin-4-amine hydrochloric acid salt]",fold more potent than CA-4 in microtubule depolymerizing activity,[1]; versus CA-4,about 3 fold
same,GI50s in the NCI 60 cell line panel,NCI 60 cancer cell lines,potent GI50s against most of the NCI 60 cancer cell lines
same,toxicity as measured by animal weight,[2]; U251 xenograft mice,without significant toxicity
same,tumor growth (tumor volume) in U251 xenograft,[2]; started 7 days after implantation,inhibited tumor growth as compared with the carrier or temozolomide
same,Maximal tolerated dose (MTD),[3],17.5 mg/kg/2x wk
"COc1ccc(N(C)c2nc(C)nc3c2CCC3)c2ccccc12 [Compound 6, N-(4’-methoxynaphthyl-1’)-N,2-dimethyl-cyclopenta[d]pyrimidin-4-amine]",fold less potent than 5 for microtubule depolymerizing activity,[1]; versus compound 5,more than 100 fold
same,fold less potent/active than 5 in the U251 cytotoxicity assay,U251 cancer cells,2 fold
"COc1cccc2c(N(C)c3nc(C)nc4c3CCC4)cccc12 [Compound 7, N-(5’-methoxynaphthyl-1’)-N,2-dimethyl-cyclopenta[d]pyrimidin-4-amine hydrochloric acid salt]",fold less potent/active than 5 in the U251 cytotoxicity assay,U251 cancer cells,2 fold
"COc1ccc2c(N(C)c3ncnc4c3CCC4)cccc2c1 [Compound 8, N-(6’-methoxynaphthyl-1’)-N-methyl-cyclopenta[d]pyrimidin-4-amine]",microtubule depolymerizing activity,[1],no microtubule depolymerizing activity
same,fold less potent/active than 5 in the U251 cytotoxicity assay,U251 cancer cells,7 fold
"COc1cccc2cc(N(C)c3ncnc4c3CCC4)ccc12 [Compound 9, N-(5’-methoxynaphthyl-2’)-N-methyl-cyclopenta[d]pyrimidin-4-amine hydrochloric salt]",fold less potent/active than 5 in the U251 cytotoxicity assay,U251 cancer cells,4 fold
"Cn1nnc2c(C(N)=O)ncn2c1=O [temozolomide, reference compound]",Maximal tolerated dose (MTD),[3],50 mg/kg/wk
